Assays:
[1] = biological target: T1, human DA D4.2 receptor (Homo sapiens, UniProt P21917, DEL265-296); test: [3H]Thymidine uptake assay (block of quinpirole stimulation in CHO pro-5 cells transfected with human DA D4.2 receptor); assay type: cell-based; conditions: human D4.2, quinpirole-stimulated uptake
T1 construct: expressed in transfected cells
T1 sequence (P21917 with tags, fused parts or gaps DEL265-296): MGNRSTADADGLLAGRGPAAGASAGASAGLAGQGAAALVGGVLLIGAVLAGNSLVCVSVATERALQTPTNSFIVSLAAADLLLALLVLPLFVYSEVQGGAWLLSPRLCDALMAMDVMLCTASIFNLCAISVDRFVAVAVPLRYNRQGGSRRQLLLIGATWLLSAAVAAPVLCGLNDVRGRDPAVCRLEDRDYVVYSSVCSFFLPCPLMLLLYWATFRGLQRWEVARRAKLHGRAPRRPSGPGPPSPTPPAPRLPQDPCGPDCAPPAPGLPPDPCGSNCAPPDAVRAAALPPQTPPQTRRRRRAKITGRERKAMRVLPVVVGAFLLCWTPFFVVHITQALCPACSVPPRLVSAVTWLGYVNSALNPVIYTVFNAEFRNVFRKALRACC
Experimental: Compounds were tested for their ability to bind to dopamine (DA) receptors as measured by their inhibition of [^3 H]spiperone binding to the human D2, and D4.2 receptors (Pugsley, et al., 1995). The ability of test compounds to block the stimulation of [^3 H]thymidine uptake in CHO pro-5 cells transfected with human DA D4.2 receptor cDNA caused by the DA agonist quinpirole was employed as an in vitro measure of DA receptor antagonist activity (Pugsley, et al., 1995). The effects of compounds on synthesis rates of rat brain catecholamines were estimated by measuring the accumulation of [3-(3,4-dihydroxyphenyl)-L-alanine (DOPA) after administration of the L-aromatic amino acid decarboxylase inhibitor, NSD 1015 (Pugsley, et al., 1995).
[^3 H]Thymidine Uptake Assay
The effects of test compounds on [^3 H]thymidine uptake were carried out essentially as described by Pugsley, et al., 1995. CHO p-5 cells transfected with human D4.2 cDNA were seeded into 96-well plates at a density of about 5000 cells/well and were grown at 37° C. in a minimum essential medium (aMEM, Gibco) with 10% calf serum for 2 days. The wells were then rinsed three times with serum-free media. Fresh media ([…]) was added along with […] of test compound in water or vehicle alone. Eight wells of each plate received […] of aMEM with 10% fetal calf serum. After culture for 16 to 17 hours, [3H]thymidine ([…]) was added for 4 hours. The cells were trypsinized and harvested onto filter mats with a 96-well Brandel cell harvester. The filters were counted in a Beta-Plate scintillation counter.

[2] = biological target: T2, human D4.2 receptor (Homo sapiens, UniProt P21917, DEL265-296); test: Inhibition of [3H]spiperone binding to human dopamine D4.2 receptors; conditions: human D4.2, CHO K1 membranes
T2 construct: expressed in transfected cells; host or cells: CHO K1 cells
T2 sequence (P21917 with tags, fused parts or gaps DEL265-296): T1 sequence (P21917 with tags, fused parts or gaps DEL265-296)
Excerpt: A cell line expressing human dopamine D2 (Long form) receptors was purchased from Oregon Health Sciences University, Portland, Oreg. The D2 receptor cDNA was subcloned into an expression vector, pRc/CMV. The plasmids were transfected by electroporation into CHO K1 cells. A single stable transfectant, resistant to the antibiotic 418, was isolated and selected for use in the binding studies. For D4 binding, CHO K1 cells stably transfected to express the human recombinant dopamine D4.2 receptor subtype, as described by Shih, et al., "The expression and functional characterization of human dopamine D4.2 receptor in CHO K1 cells," Soc. Neurosci., 1995;21(Part 1):621.
CHO K1 cells expressing either human D2 and D4.2 receptors were grown in 162 cm^2 culture flasks in F12 medium (Gibco Laboratories, Grand Island, N.Y.) supplemented with 10% fetal bovine serum (FBS, Hyclone, Logan, Utah) in an atmosphere of 5% CO2 /95% air at 37° C. Cells were grown until confluent, after which growth medium was removed and replaced with 0.02% ethylene diamine tetracetate (EDTA) in a phosphate-buffered saline solution (Sigma Chemical Co., St. Louis, Mo.) and scraped from the flasks. The cells were centrifuged at about 1000×g for 10 minutes at […] and then resuspended in TEM buffer (25 mM Tris-HCl, pH 7.4, 5 mM EDTA, and 6 mM MgCl2) for D2 or the D4.2 buffer (50 mM Tris-HCl, pH 7.4, 5 mM EDTA, 1.5 mM CaCl2, 5 mM KCl, and 120 mM NaCl) and homogenized. The membranes were pelleted by centrifugation at 20,000×g at […] for 20 minutes. Then the pellets were resuspended in appropriate buffer at 1 mL/flask and stored at -70° C. until used in the receptor binding assay.
Receptor Binding Assays: D2,D4.2 Dopamine Receptors
After 60 minutes incubation at 25° C., the incubations were terminated by rapid filtration through Whatmann F/B lass fibre filters (soaked for 1 hour in 0.5% polyethylenimine) on a cell harvester, with three washes of 1 mL ice-cold buffer. Individual filter disks containing the bound ligand were placed in counting vials with 4 mL of scintillation fluid (Ready Gel, Beckman Instrument Inc., Fullerton, Calif.) and then counted in a Beckman LS-6800 liquid scintillation counter at an efficiency of 45%. Nonspecific binding was defined in presence of 1 mM of haloperidol.
Saturation and competition binding data were analyzed using an iterative nonlinear least-square curve-fitting Ligand program. In competition experiments, apparent Ki values were calculated from IC50 values by method of Cheng and Prusoff, "Relationship between the inhibition constant (Ki) and the concentration of inhibitor which causes 50% inhibition (IC50) of an enzymatic reaction," Biochem. Pharmacol., 1973;22:3099-3108. Experimental compounds were made up as stock solutions in dimethyl sulfoxide (DMSO). […] Each observation was carried out in triplicate. To allow these calculations, Ki values were measured for the interaction of various ligands with the receptor. […]

IC50 [1]: 1.6 nM | IC50 [2]: 2.8 nM
SMILES: Cc1ccc(N2CCN(Cc3ccc4c(c3)NCCN4)CC2)cc1C [Example 2, 6-[4-(3,4-Dimethylphenyl)piperazin-1-ylmethyl]-1,2,3,4-tetrahydroquinoxaline]
